From patent US7244718B2, “Water soluble prodrugs of hindered alcohols” (University of Kansas, priority 1998, dated 2007)

Test: Stability of the isolated free acid on standing at room temperature
Format: physicochemical
Conditions: isolated free acid (oil)
Description: To a solution of o-phosphonooxymethylpropofol dibenzyl ester (115 mg, 0.245 mmol) in methanol (10 mL) was added palladium on carbon (10%, 20 mg). This mixture was stirred under an atmosphere of hydrogen (1 atm) for 1.5 hour.
To a solution of O-phosphonooxymethyl-alpha-tocopherol dibenzyl ester (88 mg, 0.12 mmol) in tetrahydrofuran (10 mL) was added palladium on carbon (10%, 15 mg). The mixture was stirred under an atmosphere of hydrogen (1 atm) for 10 minutes (the reaction was complete after 5 minutes as judged by TLC). The catalyst was removed by filtration through Celite, the filtrate was evaporated at reduced pressure, and then dried in vacuo.

Row | SMILES | stability at room temperature
1 | Cc1c(C)c2c(c(C)c1OCOP(=O)(O)O)CCC(C)(CCCC(C)CCCC(C)CCCC(C)C)O2 (stereo not drawn) [IIb, O-phosphonooxymethyl-alpha-tocopherol] | unstable at room temperature
2 | CC(C)c1cccc(C(C)C)c1OCOP(=O)(O)O [Id, O-phosphonooxymethylpropofol] | unstable on standing at room temperature
